Legend:
women with endometriosis = test: Bone mineral density (BMD) of the lumbar spine by DEXA, ratio of 6 month to baseline; assay type: in vivo; conditions: deslorelin alone, another study
Description: Women with endometriosis treated with intranasal deslorelin (a GnRH compound) were assigned to one of three methods of estradiol add-back: (1) 50 μg/day estradiol transdermal patch, (2) 300 μg/day intranasal estradiol, or (3) 300 μg/day intranasal estradiol with 275 μg/day intranasal testosterone. Loss of bone mineral density (BMD) is a known side effect of treatment with GnRH compounds. Thus, BMD of the lumbar spine (L1–L4) of the test subjects in Example 4 was obtained bydual-energy X-ray absorptiometry (DEXA) prior to and after six months of treatment. The results are shown in Table 4 as the ratio of BMD at the six month time point (BMD6mo.) to the BMD prior to treatment (BMDbaseline).
Women with endometriosis treated with intranasal deslorelin (GnRH compound) were assigned to one of three methods of add-back: (1) 50 μg/day estradiol transdermal patch, (2) 300 μg/day intranasal estradiol, or (3) 300 μg/day intranasal estradiol with 275 μg/day intranasal testosterone. Bone mineral density (BMD) of the lumbar spine was obtained by dual-energy X-ray absorptiometry (DEXA) prior to and after six months of drug treatment. BMD changes are shown in Table 4 as the ratio of the 6 month value compared to the baseline value.

[1] = cited from earlier work

SMILES	Ratio of 6 Month BMD to Baseline BMD, Mean (women with endometriosis)	water solubility (at 25° C., g/100 mL) [1]
CCNC(=O)[C@@H]1CCCN1C(=O)[C@H](CCCN=C(N)N)NC(=O)[C@H](CC(C)C)NC(=O)[C@@H](Cc1c[nH]c2ccccc12)NC(=O)[C@H](Cc1ccc(O)cc1)NC(=O)[C@H](CO)NC(=O)[C@H](Cc1c[nH]c2ccccc12)NC(=O)[C@H](Cc1cnc[nH]1)NC(=O)[C@@H]1CCC(=O)N1 [Deslorelin (D), deslorelin]	0.971	–
OC[C@H]1O[C@@H]2O[C@H]3[C@H](O)[C@@H](O)[C@@H](O[C@H]4[C@H](O)[C@@H](O)[C@@H](O[C@H]5[C@H](O)[C@@H](O)[C@@H](O[C@H]6[C@H](O)[C@@H](O)[C@@H](O[C@H]7[C@H](O)[C@@H](O)[C@@H](O[C@H]8[C@H](O)[C@@H](O)[C@@H](O[C@H]9[C@H](O)[C@@H](O)[C@@H](O[C@H]%10[C@H](O)[C@@H](O)[C@@H](O[C@H]1[C@H](O)[C@H]2O)O[C@@H]%10CO)O[C@@H]9CO)O[C@@H]8CO)O[C@@H]7CO)O[C@@H]6CO)O[C@@H]5CO)O[C@@H]4CO)O[C@@H]3CO [δ-cyclodextrin]	–	8.19 g/100 mL

Reference: patent US7029657B2, “Nasal spray steroid formulation and method” (Balance Pharmaceuticals, Inc., priority 2002, dated 2006)
